From patent publication US7083667B2, “Colorant compound, ink, ink tank, recording unit, recording apparatus and recording process” (Canon Kabushiki Kaisha, priority 2004, dated 2006)

Experiment: Determination of solubility in chloroform at room temperature
Type: physicochemical
Details: for Solubility: in chloroform, room temperature; for Solubility in chloroform (in words): nonpolar solvent
Procedure: Determination of Solubility
With respect to Colorant Compounds (5) to (16) obtained above, solubility in chloroform at room temperature was determined.

Row | Compound | Solubility | Solubility in chloroform (in words)
1 | CCOC(=O)c1ccccc1-c1c2cc/c(=N\c3c(C)cccc3C)cc-2oc2cc(Nc3c(C)cccc3C)ccc12.Cl [Compound (5)] | 10.7 % by mass | 
2 | CCOC(=O)c1ccccc1-c1c2cc/c(=N\c3c(C)cccc3C)cc-2oc2cc(Nc3c(C)cccc3C)ccc12 [Compound (6)] | 20.5 % by mass | higher solubility
3 | Cc1cccc(C)c1N=c1ccc2c(-c3ccccc3S(=O)(=O)O)c3ccc(Nc4c(C)ccc(S(=O)(=O)[O-])c4C)cc3oc-2c1.[Na+] [C.I. Acid Red 289, reference compound] |  | not dissolved
